Measurements taken from the supplement of paper PMC10307832.

Key:
Assay in all cases: relative viability (nuclei count vs DMSO), 5 days (fraction); higher = more cells survive
[1] = compound: C1=CC2=C(C=CC(=C2)C=C3C(=O)NC(=NCC4=CC=CS4)S3)N=C1 [RO-3306] + CC(=O)Nc1cccc(-n2c(=O)n(C3CC3)c(=O)c3c(Nc4ccc(I)cc4F)n(C)c(=O)c(C)c32)c1 [Trametinib] (partner 0.02 µM)
Summary of the method: (§1)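 After 5 days of treatment, lung cancer cells in 1536-well plates were fixed and stained in a single step (final 0.05% Triton X-100, 1% formaldehyde, 1 ug/ml Hoechst) and their nuclei counted on 4× images. Treatment had been applied by pin tool the day after seeding as one drug alone or as a fixed anchor-drug dose with five library-drug doses (not always all listed) in √10 steps. Relative viability is the nuclei count of treated wells divided by that of vehicle wells, and values are medians of duplicate plates.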

[2] = compound: C1=CC2=C(C=CC(=C2)C=C3C(=O)NC(=NCC4=CC=CS4)S3)N=C1 [RO-3306] + CS(=O)(=O)N1CCN(Cc2cc3nc(-c4cccc5[nH]ncc45)nc(N4CCOCC4)c3s2)CC1 [Pictilisib] (partner 1 µM)
Summary of the method: as §1

[3] = compound: O=S(=O)(c1ccccc1)N(CC(F)(F)F)c1ccc(C(O)(C(F)(F)F)C(F)(F)F)cc1 + Cc1cc(Nc2cc(N3CCN(C)CC3)nc(Sc3ccc(NC(=O)C4CC4)cc3)n2)n[nH]1 [Tozasertib] (partner 0.1 µM)
Summary of the method: as §1

[4] = compound: O=S(=O)(c1ccccc1)N(CC(F)(F)F)c1ccc(C(O)(C(F)(F)F)C(F)(F)F)cc1 + Nc1nc2[nH]cc(CCc3ccc(C(=O)N[C@@H](CCC(=O)O)C(=O)O)cc3)c2c(=O)[nH]1 [Pemetrexed] (partner 0.2 µM)
Summary of the method: as §1

Cell Line	relative viability ([1]; first compound 0.01 µM)	relative viability ([1]; first compound 0.03162 µM)	relative viability ([1]; first compound 0.1 µM)	relative viability ([1]; first compound 0.3162 µM)	relative viability ([1]; first compound 1 µM)	relative viability ([2]; first compound 0.01 µM)	relative viability ([2]; first compound 0.03162 µM)	relative viability ([2]; first compound 0.1 µM)	relative viability ([2]; first compound 0.3162 µM)	relative viability ([2]; first compound 1 µM)	relative viability ([3]; first compound 0.8 µM)	relative viability ([3]; first compound 2.53 µM)	relative viability ([3]; first compound 8 µM)	relative viability ([4]; first compound 0.8 µM)	relative viability ([4]; first compound 2.53 µM)	relative viability ([4]; first compound 8 µM)
LC-2-ad	0.961	0.848	0.945	0.908	0.852	0.43	0.275	0.377	0.488	0.428	0.496	0.492	0.474	0.274	0.286	0.244
LCLC-97TM1	0.214	0.186	0.191	0.204	0.165		0.18	0.165	0.254	0.183	0.218	0.21	0.156		0.16	0.179
LCLC-103H	0.728	0.665	0.739	0.634	0.689	0.461	0.556	0.561	0.655	0.608	0.541	0.447	0.349	0.457	0.465	0.467
LK-2	1.01	0.659	0.692	0.872	0.872	0.482	0.499	0.64	0.681	0.534	0.174	0.188	0.189	0.283	0.266	0.298
LOU-NH91	0.829	0.735	0.75	0.76	0.742	0.512	0.528	0.522	0.533	0.406	0.735	0.701	0.678	0.424	0.434	0.35
LU99A	0.638	0.522	0.556	0.554	0.575	0.33	0.292	0.343	0.284	0.295	0.235	0.238	0.253	0.184	0.18	0.18
LXF-289	0.741	0.63	0.647	0.673	0.695	0.781	0.677	0.806	0.805	0.774	0.213	0.203	0.153	0.883	0.82	0.86
NCI-H23	0.344		0.352	0.388	0.375	0.507	0.468	0.433	0.451	0.433	0.315	0.307	0.331	0.706	0.654	0.74
NCI-H322M	0.561	0.445	0.515	0.54	0.531	0.493	0.486	0.485	0.556	0.585	0.562	0.575	0.467	0.603	0.62	0.595
NCI-H358	0.131	0.131	0.127	0.135	0.12	0.308	0.387	0.319	0.321	0.31	0.107	0.0905	0.0846		0.177	0.181
NCI-H441	0.451	0.341	0.368	0.439	0.428	0.491	0.332	0.387	0.607	0.451	0.58	0.588	0.697	0.25	0.262	0.285
NCI-H460	0.162	0.115	0.139	0.223	0.128	0.388	0.374	0.371	0.329	0.32	0.392	0.417	0.243	0.0543	0.0599	0.0652
NCI-H520	0.896	0.629	0.569	0.714	0.756	0.307	0.266	0.283	0.312	0.314	0.435	0.463	0.476	0.757	0.908	0.795
NCI-H522	0.652	0.521	0.664	0.712	0.666						0.567	0.488	0.615	1.03	1.11	0.877
NCI-H596	0.798	0.773	0.722	0.793	0.58	0.345	0.394	0.375	0.372	0.287	0.907	0.761	0.75	0.549	0.528	0.562
NCI-H727	0.39	0.388	0.355	0.352	0.409	0.355	0.356	0.438	0.319	0.41	0.605	0.572	0.674			
NCI-H1299						0.873	0.854	0.833	0.796	0.649						
NCI-H1563						0.641	0.597	0.69	0.62	0.59				0.737	0.749	0.75
NCI-H1623											0.399	0.396	0.366			
NCI-H1648	0.482		0.47	0.538	0.404						0.408	0.293	0.339	0.718	0.574	0.535
NCI-H1703						0.241	0.221	0.237	0.241	0.254						
NCI-H1792	0.508		0.372	0.585	0.413	0.288		0.288	0.287	0.224				0.892	0.702	0.717
NCI-H2342	0.988	0.676	0.749	0.843	0.732						0.483	0.609	0.493	0.894	0.841	0.956
SW 900	0.885	0.742	0.752	0.663	0.804						0.528	0.426	0.404	0.581	0.478	0.538
